Results reported in patent publication US5948786A, “Piperidinylpyrimidine derivatives” (Sumitomo Pharmaceuticals Company, Limited, priority 1996, dated 1999).

The compounds below were run on TNF α production from mouse macrophages (assay: Inhibitory activity of compound on TNF α Production from mouse macrophages (LPS-induced PEC's)). Details: Macrophage, LPS 10 μg/ml, 18 hours.
Format: cell-based
Method: BALB/c mice (female, 5-7 weeks old, Charles River Japan, Tokyo, Japan) were injected i.p. with 1 ml of 2.4% thioglycollate broth. After 4 days, the mice were sacrificed. Peritoneal exudated cells (PEC's) were collected from the peritoneal cavity by washing with minimum essential medium (MEM, Handai biseibutubyou kenkyukai, Osaka, Japan) containing 5 U/ml heparin, 1% fetal bovine serum (FBS, Filtron, Victoria, Australia) and antibiotics. The cells were washed two times with MEM, suspended with MEM containing 10% FBS (complete MEM, cMEM) and seeded into 96-well culture plates (Costar, Cambridge, Mass., USA) at 2×10^5 cells/well. The cells were incubated for 1 hour at 37° C. in a humidified 5% CO2 incubator and washed two times to remove non-adherent cells.
TNF α was induced by 10 μg/ml of LPS (E. coli O111B4, DIFCO, Detroit, Mich., USA) the cells were cultured for 18 hours at 37° C. A compound of the present invention was dissolved in DMSO and added to the culture simultaneously with LPS. The final DMSO concentration was below 0.1%. The TNF α concentration in supernatant and recombinant mouse TNF α standard (rm-TNF α, Genzyme, Mass., USA) were incubated overnight at 4° C. in a 96-well plate coated with anti-mouse TNF α monoclonal antibody (PharMingen, San Diego, Calif., USA) that previously had been blocked with 10% FBS. Each well of the plate first was incubated at room temperature with biotinylated anti-mouse TNF α polyclonal antibodies (PharMingen) for 45 minutes, then with peroxidase-conjugated streptavidin (Kirkegaard & Perry Laboratories Inc., Gaitherburg, Md., USA) for 30 minutes. After each incubation, the plate was washed 4 to 8 times with PBS containing 0.2% Tween 20. TMB (Kirkegaard & Perry Laboratories Inc.) was the peroxidase substrate used and, the absorbance of each well was quantified at 450 nm by a microplatereader (Molecular Devices Corp., CA, USA). TNF α levels in the supernatant were quantified with rm-TNF α as the standard.
With `COc1ccc(-c2cc(C3CCN(C(=O)c4ccccc4)CC3)nc(N)n2)cc1` [Example 5, 2-Amino-4-(1-benzoyl-4-piperidinyl)-6-(4-methoxyphenyl)pyrimidine] the inhibition at 30 µM was 57%. `Nc1nc(-c2ccc(Cl)cc2)cc(C2CCN(C(=O)c3ccccc3)CC2)n1` [Example 6, 2-Amino-4-(1-benzoyl-4-piperidinyl)-6-(4-chlorophenyl)pyrimidine] gave an inhibition at 30 µM of 78%. `Nc1nc(Cc2ccc(Cl)cc2)cc(C2CCN(C(=O)c3ccccc3)CC2)n1` [Example 7, 2-Amino-4-(1-benzoyl-4-piperidinyl)-6-(4-chlorophenylmethyl)pyrimidine] gave an inhibition at 30 µM of 58%. Compound `CCC(=O)N1CCC(c2nc(N)nc3ccccc23)CC1` [Example 16] has an inhibition at 30 µM of 4%. Work on `CCCC(=O)N1CCC(c2nc(N)nc3ccccc23)CC1` [Example 17] yielded an inhibition at 30 µM of 8%. For `CCCCCC(=O)N1CCC(c2nc(N)nc3ccccc23)CC1` [Example 19], the inhibition at 30 µM was 10%. `CCCCCCC(=O)N1CCC(c2nc(N)nc3ccccc23)CC1` [Example 20] was tested, and the inhibition at 30 µM was 63%. `CCCCCCCC(=O)N1CCC(c2nc(N)nc3ccccc23)CC1` [Example 21] gave an inhibition at 30 µM of 74%. Work on `CCCCCCCCC(=O)N1CCC(c2nc(N)nc3ccccc23)CC1` [Example 22] yielded an inhibition at 30 µM of 64%. Work on `CCCCCCCCCC(=O)N1CCC(c2nc(N)nc3ccccc23)CC1` [Example 23] yielded an inhibition at 30 µM of 67%. With `CCCCCCCCCCC(=O)N1CCC(c2nc(N)nc3ccccc23)CC1` [Example 24] the inhibition at 30 µM was 70%. `CC(C)(C)C(=O)N1CCC(c2nc(N)nc3ccccc23)CC1` [Example 26] gave an inhibition at 30 µM of 19%. For `CC(C)(C)OC(=O)NCCCCCCC(=O)N1CCC(c2nc(N)nc3ccccc23)CC1` [Example 27, 2-amino-4-[1-(7-t-butoxycarbonylaminoheptanoyl)-4-piperidinyl]quinazoline], the inhibition at 30 µM was 95%. `CC(C)(C)OC(=O)NCCCCCCCC(=O)N1CCC(c2nc(N)nc3ccccc23)CC1` [Example 28, 2-amino-4-[1-(8-t-butoxycarbonylaminooctanoyl)-4-piperidinyl]quinazoline] was tested, and the inhibition at 30 µM was 100%. `CC(C)(C)OC(=O)NCCCCCCCCCCC(=O)N1CCC(c2nc(N)nc3ccccc23)CC1` [Example 29, 2-amino-4-[1-(11-t-butoxycarbonylaminoundecanoyl)-4-piperidinyl]quinazoline] gave an inhibition at 30 µM of 100%. `Nc1nc(C2CCN(C(=O)CCCCCCCCCO)CC2)c2ccccc2n1` [Example 30] gave an inhibition at 30 µM of 64%. In the case of `COc1ccccc1C(=O)N1CCC(c2nc(N)nc3ccccc23)CC1` [Example 32], the inhibition at 30 µM is reported as 30%. In the case of `COc1cccc(C(=O)N2CCC(c3nc(N)nc4ccccc34)CC2)c1` [Example 33], the inhibition at 30 µM is reported as 18%. With `Nc1nc(C2CCN(C(=O)c3ccccc3Cl)CC2)c2ccccc2n1` [Example 35] the inhibition at 30 µM was 72%. With `Nc1nc(C2CCN(C(=O)c3cccc(Cl)c3)CC2)c2ccccc2n1` [Example 36] the inhibition at 30 µM was 42%. Compound `Nc1nc(C2CCN(C(=O)c3ccc(Cl)cc3)CC2)c2ccccc2n1` [Example 37] has an inhibition at 30 µM of 4%. `Nc1nc(C2CCN(C(=O)c3ccccc3[N+](=O)[O-])CC2)c2ccccc2n1` [Example 38] showed an inhibition at 30 µM of 30%. `Nc1nc(C2CCN(C(=O)c3cccc([N+](=O)[O-])c3)CC2)c2ccccc2n1` [Example 39] gave an inhibition at 30 µM of 12%. `Nc1nc(C2CCN(C(=O)c3ccc([N+](=O)[O-])cc3)CC2)c2ccccc2n1` [Example 40] showed an inhibition at 30 µM of 15%. In the case of `Nc1nc(C2CCN(C(=O)c3cccnc3)CC2)c2ccccc2n1` [Example 50], the inhibition at 30 µM is reported as 18%. `Nc1nc(C2CCN(C(=O)c3ccncc3)CC2)c2ccccc2n1` [Example 51] showed an inhibition at 30 µM of 28%. `COc1cccc(C(=O)N2CCC(c3nc(N)nc4ccccc34)CC2)c1OC` [Example 52] was tested, and the inhibition at 30 µM was 20%. In the case of `COc1ccc(C(=O)N2CCC(c3nc(N)nc4ccccc34)CC2)c(OC)c1` [Example 53], the inhibition at 30 µM is reported as 54%. `COc1ccc(C(=O)N2CCC(c3nc(N)nc4ccccc34)CC2)cc1OC` [Example 56] was tested, and the inhibition at 30 µM was -28%. In the case of `Nc1nc(C2CCN(C(=O)c3ccc(Cl)cc3Cl)CC2)c2ccccc2n1` [Example 59], the inhibition at 30 µM is reported as 56%. `Nc1nc(C2CCN(C(=O)c3cc(Cl)ccc3Cl)CC2)c2ccccc2n1` [Example 60] showed an inhibition at 30 µM of 73%. `Nc1nc(C2CCN(C(=O)c3ccc(Cl)c(Cl)c3)CC2)c2ccccc2n1` [Example 62] showed an inhibition at 30 µM of 55%. `Nc1nc(C2CCN(C(=O)c3cccc4ccccc34)CC2)c2ccccc2n1` [Example 66] showed an inhibition at 30 µM of 32%. `COc1ccc(C(=O)N2CCC(c3nc(N)nc4ccccc34)CC2)c(OC)c1OC` [Example 68] showed an inhibition at 30 µM of 8%. `COc1ccc(OC)c(C(=O)N2CCC(c3nc(N)nc4ccccc34)CC2)c1OC` [Example 69] gave an inhibition at 30 µM of -95%. `COc1cc(C(=O)N2CCC(c3nc(N)nc4ccccc34)CC2)cc(OC)c1OC` [Example 72] gave an inhibition at 30 µM of 32%. Work on `Nc1nc(C2CCN(C(=O)c3cc(Cl)cc(Cl)c3Cl)CC2)c2ccccc2n1` [Example 73] yielded an inhibition at 30 µM of 23%. With `Nc1nc(C2CCN(C(=O)c3c(Cl)ccc(Cl)c3Cl)CC2)c2ccccc2n1` [Example 74] the inhibition at 30 µM was 88%. `Nc1nc(C2CCN(C(=O)c3c(Cl)cc(Cl)cc3Cl)CC2)c2ccccc2n1` [Example 75] showed an inhibition at 30 µM of 92%. In the case of `COc1ccccc1CC(=O)N1CCC(c2nc(N)nc3ccccc23)CC1` [Example 77], the inhibition at 30 µM is reported as 27%. For `COc1cccc(CC(=O)N2CCC(c3nc(N)nc4ccccc34)CC2)c1` [Example 78], the inhibition at 30 µM was 10%. `COc1ccc(CC(=O)N2CCC(c3nc(N)nc4ccccc34)CC2)cc1` [Example 79] gave an inhibition at 30 µM of -3%. `Nc1nc(C2CCN(C(=O)Cc3ccccc3Cl)CC2)c2ccccc2n1` [Example 80] gave an inhibition at 30 µM of 28%. `Nc1nc(C2CCN(C(=O)Cc3cccc(Cl)c3)CC2)c2ccccc2n1` [Example 81] gave an inhibition at 30 µM of 56%. `Nc1nc(C2CCN(C(=O)Cc3ccc(Cl)cc3)CC2)c2ccccc2n1` [Example 82] showed an inhibition at 30 µM of 59%. With `Nc1nc(C2CCN(C(=O)Cc3ccc([N+](=O)[O-])cc3)CC2)c2ccccc2n1` [Example 88] the inhibition at 30 µM was 26%. With `COc1ccc(CC(=O)N2CCC(c3nc(N)nc4ccccc34)CC2)cc1OC` [Example 92] the inhibition at 30 µM was 68%. With `COc1cc(CC(=O)N2CCC(c3nc(N)nc4ccccc34)CC2)cc(OC)c1` [Example 93] the inhibition at 30 µM was 60%. Work on `Nc1nc(C2CCN(C(=O)Cc3ccc(Cl)cc3Cl)CC2)c2ccccc2n1` [Example 94] yielded an inhibition at 30 µM of 78%. Work on `Nc1nc(C2CCN(C(=O)Cc3ccc(Cl)c(Cl)c3)CC2)c2ccccc2n1` [Example 96] yielded an inhibition at 30 µM of 100%. Compound `Nc1nc(C2CCN(C(=O)Cc3ccc([N+](=O)[O-])cc3[N+](=O)[O-])CC2)c2ccccc2n1` [Example 97] has an inhibition at 30 µM of 45%. In the case of `Nc1nc(C2CCN(C(=O)Cc3c(Cl)ccc(Cl)c3Cl)CC2)c2ccccc2n1` [Example 98], the inhibition at 30 µM is reported as 43%. With `CCCCCCC(=O)N1CCC(c2nc(N)nc3ccc(OC)cc23)CC1` [Example 103] the inhibition at 30 µM was 44%. With `CCCCCCCC(=O)N1CCC(c2nc(N)nc3ccc(OC)cc23)CC1` [Example 104] the inhibition at 30 µM was 50%. For `CCCCCCCCC(=O)N1CCC(c2nc(N)nc3ccc(OC)cc23)CC1` [Example 105], the inhibition at 30 µM was 54%. `CCCCCCCCCC(=O)N1CCC(c2nc(N)nc3ccc(OC)cc23)CC1` [Example 106] gave an inhibition at 30 µM of 54%. Compound `COc1ccc(C(=O)N2CCC(c3nc(N)nc4ccc(OC)cc34)CC2)cc1` [Example 110] has an inhibition at 30 µM of 21%. In the case of `COc1ccc2nc(N)nc(C3CCN(C(=O)c4ccc(Cl)cc4)CC3)c2c1` [Example 113], the inhibition at 30 µM is reported as -1%. Compound `COc1ccc2nc(N)nc(C3CCN(C(=O)c4ccc([N+](=O)[O-])cc4)CC3)c2c1` [Example 116] has an inhibition at 30 µM of 23%. `COc1ccc(CC(=O)N2CCC(c3nc(N)nc4ccc(OC)cc34)CC2)cc1` [Example 120] was tested, and the inhibition at 30 µM was 31%. Compound `COc1ccc2nc(N)nc(C3CCN(C(=O)Cc4ccc(Cl)cc4)CC3)c2c1` [Example 123] has an inhibition at 30 µM of 28%. `COc1ccc2nc(N)nc(C3CCN(C(=O)Cc4ccc([N+](=O)[O-])cc4)CC3)c2c1` [Example 126] gave an inhibition at 30 µM of 43%. Compound `CCCCCCCC(=O)N1CCC(c2nc(N)nc3ccc(Cl)cc23)CC1` [Example 127] has an inhibition at 30 µM of 48%. `CCCCCCCCC(=O)N1CCC(c2nc(N)nc3ccc(Cl)cc23)CC1` [Example 128] showed an inhibition at 30 µM of 79%. `CCCCCCCCCC(=O)N1CCC(c2nc(N)nc3ccc(Cl)cc23)CC1` [Example 129] gave an inhibition at 30 µM of 48%. Compound `COc1ccc(CC(=O)N2CCC(c3nc(N)nc4ccc(Cl)cc34)CC2)cc1` [Example 131] has an inhibition at 30 µM of 23%. With `Nc1nc(C2CCN(C(=O)Cc3ccc(Cl)cc3)CC2)c2cc(Cl)ccc2n1` [Example 132] the inhibition at 30 µM was 55%. For `Nc1nc(C2CCN(C(=O)Cc3ccc([N+](=O)[O-])cc3)CC2)c2cc(Cl)ccc2n1` [Example 133], the inhibition at 30 µM was 35%.
